From patent publication US20060045910A1, “Preserved fusogenic vesicles” (priority 2004, published 2006)

System: rat cardiomyocyte cells
Assay: Uptake of ATP by rat cardiomyocyte cells (FIG. 5)
Format: cell-based
Excerpt: While not wishing to be bound by any specific theory, it is currently believed that the dehydration of the vesicles that occurs during freeze-drying causes more ATP to enter the fusogenic vesicles. In this manner, the preserved and re-hydrated fusogenic vesicles may contain a higher concentration of ATP than their unpreserved counterparts.

Nc1ncnc2c1ncn2[C@@H]1O[C@H](COP(=O)(O)OP(=O)(O)OP(=O)(O)O)[C@@H](O)[C@H]1O [unencapsulated ATP, adenosine triphosphate]
uptake of ATP by cells: barely absorbed
